From the SangsterLogP compilation

Row | Compound | logP
1 | CN1CC(O)N(C(=O)NC2CCCC2)C1=O (stereo unspecified) | 1.47
2 | CN1CC(O)N(C(=O)NC2CCCCC2)C1=O (stereo unspecified) | 1.87
3 | CC1CCCCC1NC(=O)N1C(=O)N(C)CC1O (stereo unspecified) | 2.2
4 | CCCCCNC(=O)N1C(=O)N(C)CC1O (stereo unspecified) | 1.75
5 | CC1CCC(NC(=O)N2C(=O)N(C)CC2O)CC1 (stereo unspecified) | 2.41
6 | CCCCCCNC(=O)N1C(=O)N(C)CC1O (stereo unspecified) | 2.39
7 | CCCNC(=O)N1C(=O)N(C)CC1O (stereo unspecified) | 0.99
8 | CN1CC(O)N(C(=O)NC(C)(C)C)C1=O (stereo unspecified) | 1.38
9 | CC(C)NC(=O)N1C(=O)N(C)CC1O (stereo unspecified) | 0.96
10 | CN1CC(O)N(C(=O)NCCCl)C1=O (stereo unspecified) | 0.71
11 | CN1CC(O)N(C(=O)Nc2ccccc2)C1=O (stereo unspecified) | 1.44
12 | CCC(C)NC(=O)N1C(=O)N(C)CC1O (stereo unspecified) | 1.28
13 | CN1CC(O)N(C(=O)NC2CCCCCC2)C1=O (stereo unspecified) | 2.29
14 | CCCCCCCCNC(=O)N1C(=O)N(C)CC1O (stereo unspecified) | 3.46
15 | CC(C)CNC(=O)N1C(=O)N(C)CC1O (stereo unspecified) | 1.32
16 | CCCCNC(=O)N1C(=O)N(C)CC1O (stereo unspecified) | 1.38
